Data published in patent US20250034601A1, “HETERODIMERIC BENZALDEHYDE SYNTHASE, METHODS OF PRODUCING, AND USES THEREOF” (Purdue Research Foundation, priority 2021, published 2025).

Columns and labels:
[1] = system: pds-bsα-bsβ VIGS petunia flowers; assay: Emission of volatiles from pds-bsα-bsβ VIGS petunia flowers; type: in vivo, Petunia hybrida; conditions: 2-day-old VIGS flowers, volatiles collected 20:00 to 21:00, n=6
Method: Petunia hybrida cv. Mitchell diploid (W115, Ball Seed Co., Oxford, Canada) plants were grown under standard greenhouse condition with a light period from 6:00 to 21:00 hour. To link the simultaneous downregulation of PhBSα and PhBSβ6 genes via virus induced gene silencing (VIGS) to the silencing of a marker gene, a previously generated pTRV2-PDS construct containing a 300 bp fragment of Nicotiana benthamiana Phytoene Desaturase (PDS) (CDS nucleotides 580˜879; SEQ ID NO: 11) was used (deposited with the National Center for Biotechnology Information (NCBI) GenBank and having the accession number DQ469932.1 (accepted Dec. 4, 2007)). See Spitzer et al., Reverse genetics of floral scent: Application of tobacco rattle virus-based gene silencing in petunia, Plant Physiology 145: 1241-1250 (2007). The N. benthamiana PDS fragment shared 94.3% sequence identity with P. axillaris PDS gene.
Next, a 301 bp fragment of PhBSα (CDS nucleotides 3˜303 of SEQ ID NO: 3) and a 301 bp fragment of PhBSβ6 (CDS nucleotides 3˜303 of SEQ ID NO: 4) were tandemly cloned downstream of the PDS fragment in a pTRV2-PDS plasmid using ClonExpress II One Step Cloning Kit (Vazyme Biotech Co., Piscataway, NJ), yielding the final construct pTRV2-PDS-PhBSαp.
All binary vectors, including pTRV1, deposited with the NCBI GenBank and having accession number AF406990 (accepted Jun. 11, 2002), pTRV2-PDS and pTRV2-PDS-PhBSαp, were transformed into Agrobacterium tumefaciens strain GV3101. Single colonies for each construct were cultured at 28° C. in Luria-Bertani (LB) medium containing 50 mg/L rifampicin, 50 mg/L gentamycin, and 50 mg/L kanamycin to an optical density at a wavelength of 600 nm (OD600) of 2.4.
Cells were pelleted, washed with infiltration buffer (50 mM MES, pH 5.7, 2 mM Na3PO4, 0.5% glucose and 200 μM acetosyringone), and incubated in the same buffer for 2 hours at room temperature. Yoo et al., An alternative pathway contributes to phenylalanine biosynthesis in plants via a cytosolic tyrosine:phenylpyruvate aminotransferase, Nature Communications 4: 2833 (2013). […]
Petunia flower volatiles were collected by a closed-loop stripping method and analyzed by gas chromatography mass spectrometry (GC-MS) as described in Qian et al., Completion of the cytosolic post-chorismate phenylalanine biosynthetic pathway in plants, Nature Communications 10: 15 (2019), with minor modifications. […] The extracts were pooled together and concentrated to about 200 μL under a mild stream of nitrogen gas, and samples were analyzed on an Agilent 7890B-5977B gas chromatography mass spectrometry (GC-MS) system (Agilent Technologies, Inc., Santa Clara, CA) using an analytical method translated from an established method with the Agilent 6890N-5975B GC-MS system as previously described. […]

[2] = system: benzaldehyde synthase (BS) activity in petunia flower crude protein extracts; assay: BS activity in petunia flower crude protein extracts with different substrates and cofactors (GC-MS); type: biochemical, Petunia hybrida; conditions: substance supplied as cofactor with benzoyl-CoA or in place of benzoyl-CoA; 30 minutes at 28° C.
Method: The crude protein extracts were obtained by extraction of petunia petal tissue with buffer A (3:1 [v/w] buffer/tissue). After centrifugation of slurry at 15,000 g for 20 minutes, the supernatant was desalted with Econo-Pac 10DG Columns (Bio-Rad, Hercules, CA) according to the manufacturer's protocol and 20 μL of desalted protein was used in the activity assays. The reaction was performed for 30 minutes at 28° C. and the product was extracted with 200 μL DCM containing 1 μg naphthalene (internal standard). After centrifugation at 15,000 g for 20 minutes, 2 μL of the bottom DCM phase was injected in GC-MS, with results shown in FIG. 3A. The compounds labeled in FIG. 3A with numbers are (1) benzaldehyde, (2) benzylalcohol, (3) internal standard (naphthalene), and (4) benzylbenzoate and the different assay mixtures described above are identified with their above-associated letters.

[3] = system: Prunus dulcis (almond) benzaldehyde synthase (PdBS), recombinant heterodimer PdBSα (SEQ ID NO: 6) / PdBSβ (SEQ ID NO: 9), wild type, MBP-tagged; assay: Kinetic parameters of recombinant PdBS (BS activity assay, HPLC; benzoyl-CoA + NADPH to benzaldehyde); type: biochemical; conditions: measured at 4 mM NADPH
Method: (§1) The reaction was initiated by adding a protein and incubated at 28° C. for 30 minutes, and the reactions were then terminated by adding 100 μL of 100% ice-cold methanol (MeOH). The BS enzyme assays were performed at an appropriate enzyme concentration so that reaction velocity was proportional to enzyme concentration and linear during the incubation time period. Km and Vmax were determined by non-linear fit to the Michaelis-Menten equation using Graphpad Prism, v8.2.0.
(§2) Triplicate assays were performed for all data points.
(§3) After centrifugation at 15,000 g for 20 minutes, 5 μL of the supernatant were subjected to high-performance liquid chromatography (HPLC) analysis using an Agilent 1260 Infinity II system (Agilent Technologies, Inc., Santa Clara, CA) equipped with an InfinityLab Poroshell 120 EC-C18 column (3.0×150 mm, 2.7 μm) maintained at 35° C. Products were separated with a 15-minute linear gradient of 10% aqueous acetonitrile solution to 100% acetonitrile and monitored at 248 nm using a diode array detector (DAD). Benzaldehyde was identified by comparing the retention time and absorption spectrum with authentic standard.
Quantitation was achieved by using standard curve generated from authentic standard and product verification was performed by GC-MS. Namely, crude protein extracts were obtained by extraction of petunia petal tissue with buffer A (3:1 [v/w] buffer/tissue). After centrifugation of slurry at 15,000 g for 20 minutes, the supernatant was desalted with Econo-Pac 10DG Columns (Bio-Rad Laboratories, Inc., Hercules, CA) according to the manufacturer's protocol and 20 μL of desalted protein was used in BS activity assays. The reaction was performed for 30 minutes at 28° C. and the product was extracted with 200 μL DCM containing 1 μg naphthalene (internal standard). After centrifugation at 15,000 g for 20 minutes, 2 μL of the bottom DCM phase was injected in GC-MS. […]

[4] = target: T1, Solanum lycopersicum (tomato) benzaldehyde synthase (SlBS), recombinant heterodimer SlBSα (SEQ ID NO: 7) / SlBSβ (SEQ ID NO: 10), wild type, MBP-tagged (Solanum lycopersicum, UniProt A0A3Q7HAN1+A0A3Q7ILR9); assay: Kinetic parameters of recombinant SlBS (BS activity assay, HPLC; benzoyl-CoA + NADPH to benzaldehyde); type: biochemical; conditions: measured at 4 mM NADPH; pH 6.5, 28° C.
T1 sequence (A0A3Q7ILR9 with tags, fused parts or gaps): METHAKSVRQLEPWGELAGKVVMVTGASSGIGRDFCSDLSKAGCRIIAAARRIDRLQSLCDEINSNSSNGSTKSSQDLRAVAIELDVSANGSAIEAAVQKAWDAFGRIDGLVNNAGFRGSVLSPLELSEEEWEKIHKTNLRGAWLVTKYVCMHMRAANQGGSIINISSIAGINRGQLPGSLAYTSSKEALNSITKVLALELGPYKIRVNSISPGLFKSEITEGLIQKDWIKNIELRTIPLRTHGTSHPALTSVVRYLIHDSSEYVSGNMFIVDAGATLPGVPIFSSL
T1 sequence (A0A3Q7HAN1 1-266): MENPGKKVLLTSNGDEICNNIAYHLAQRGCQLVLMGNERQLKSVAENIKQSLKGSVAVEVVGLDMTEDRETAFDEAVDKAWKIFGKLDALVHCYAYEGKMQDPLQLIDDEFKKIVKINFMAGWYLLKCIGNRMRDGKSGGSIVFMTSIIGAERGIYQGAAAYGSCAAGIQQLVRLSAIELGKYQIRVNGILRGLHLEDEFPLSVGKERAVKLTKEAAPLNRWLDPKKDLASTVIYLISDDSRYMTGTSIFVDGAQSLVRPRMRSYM
Method: as §1, §2, §3
(§4) Quantitation was achieved by using standard curve generated from authentic standard and product verification was performed by GC-MS. Namely, crude protein extracts were obtained by extraction of petunia petal tissue with buffer A (3:1 [v/w] buffer/tissue). […]

[5] = system: Petunia hybrida benzaldehyde synthase (PhBS), recombinant heterodimer PhBSα (SEQ ID NO: 1) / PhBSβ (SEQ ID NO: 2), wild type, MBP-tagged; assay: Kinetic parameters of recombinant PhBS (BS activity assay, HPLC; benzoyl-CoA + NADPH to benzaldehyde); type: biochemical; conditions: measured at 4 mM NADPH
Method: as §1, §2, §3, §4

[6] = assuming one catalytic center per heterodimer of BS

Compound: O=Cc1ccccc1 [Benzaldehyde (D5, 111), Benzaldehyde]
- reduction of emission in pds-bsα-bsβ flowers relative to pds control [1]: 68.3%

Compound: OCc1ccccc1 [Benzylalcohol (D5, 113), Benzylalcohol]
- reduction of emission in pds-bsα-bsβ flowers relative to pds control [1]: 62.9%

Compound: NC(=O)c1ccc[n+]([C@@H]2O[C@H](COP(=O)([O-])OP(=O)(O)OC[C@H]3O[C@@H](n4cnc5c(N)ncnc54)[C@H](OP(=O)(O)O)[C@@H]3O)[C@@H](O)[C@H]2O)c1 [NADP^+]
- benzaldehyde formation by crude extracts [2]: No benzaldehyde was formed

Compound: NC(=O)c1ccc[n+]([C@@H]2O[C@H](COP(=O)([O-])OP(=O)(O)OC[C@H]3O[C@@H](n4cnc5c(N)ncnc54)[C@H](O)[C@@H]3O)[C@@H](O)[C@H]2O)c1 [NAD^+]
- benzaldehyde formation by crude extracts [2]: No benzaldehyde was formed

Compound: O=CCc1ccccc1 [Phenylacetaldehyde (D7 + D8, 97 + 98), Phenylacetaldehyde]
- reduction of emission in pds-bsα-bsβ flowers relative to pds control [1]: 41.2%

Compound: O=C(O)c1ccccc1 [benzoic acid]
- benzaldehyde formation by crude extracts [2]: No benzaldehyde was formed

Compound: CC(C)(COP(=O)(O)OP(=O)(O)OC[C@H]1O[C@@H](n2cnc3c(N)ncnc32)[C@H](O)[C@@H]1OP(=O)(O)O)[C@@H](O)C(=O)NCCC(=O)NCCSC(=O)c1ccccc1 [benzoyl-CoA]
- kcat (benzoyl-CoA) [3, 6]: 5.26 ± 0.20 s⁻¹
- Vmax (benzoyl-CoA) ([3]; pH 6.5, 28° C.): 35.4 ± 1.3 nKat/mg
- Km ([3]; read-out: Km for benzoyl-CoA, apparent, pH 6.5, 28° C.): 629 ± 67.7 µM
- Vmax (benzoyl-CoA) [4]: 13.2 ± 3.0 nKat/mg
- kcat (benzoyl-CoA) [5, 6]: 9.39 ± 0.40 s⁻¹
- Vmax (benzoyl-CoA) ([5]; pH 6.5, 28° C.): 63.5 ± 2.7 nKat/mg

Compound: O=C(OCc1ccccc1)c1ccccc1 [benzylbenzoate]
- reduction of emission in pds-bsα-bsβ flowers relative to pds control [1]: 35.6%

Compound: O=C(O)C=Cc1ccccc1 [cinnamic acid]
- benzaldehyde formation by crude extracts [2]: No benzaldehyde was formed

Compound: nicotinamide adenine dinucleotide phosphate [NADPH]
- benzaldehyde formation by crude extracts [2]: Efficient conversion of benzoyl-CoA to benzaldehyde
